# Experimental data taken from patent publication US8252945B2, “Protective agent for retinal neuronal cell comprising indazole derivative as active ingredient” (UBE Industries, Ltd., priority 2005, dated 2012).
row,Structure (SMILES),melting point
1,CC(C)(N)c1ccc(-c2ccc3[nH]ncc3c2C2CC2)nc1.Cl.Cl.Cl,209 to 213 °C (dec.)
2,CC(C)(N)c1ccc(-c2ccc3[nH]ncc3c2OC(F)F)nc1.Cl.Cl.Cl,170 to 173 °C
3,CC(C)(N)c1ccc(-c2ccc3[nH]ncc3c2-c2ccno2)cc1.Cl.Cl,256 to 258 °C (dec.)
4,"CN(C)/C=C/C(=O)c1c(-c2ccc(C(C)(C)NC(=O)OC(C)(C)C)cc2)ccc2nn(C3CCCCO3)cc12 (centres unmarked) [Compound 14, 5-[4-(1-tert-butoxycarbonylamino-1-methylethyl)phenyl]-4-(3-dimethylaminoacryloyl)-2-(tetrahydropyran-2-yl)-2H-indazole]",191 to 194 °C

# Results, then the molecule that gave them:
row,melting point,Structure (SMILES)
1,255 to 261 °C (dec.),CC(C)(N)c1ccc(-c2ccc3[nH]ncc3c2[N+](=O)[O-])cc1.Cl
2,219 to 224 °C (dec.),CN(C)c1c(-c2ccc(C(C)(C)N)cc2)ccc2[nH]ncc12.Cl.Cl.Cl
3,270 to 272 °C,CC(C)(N)c1ccc(-c2ccc3[nH]ncc3c2C#N)cc1.Cl
4,258 to 261 °C (dec.),COc1c(-c2ccc(C(C)(C)N)cc2)ccc2[nH]ncc12.Cl.Cl
